Measurements taken from patent publication US20070203228A1, “Method for treating chronic obstructive pulmonary disease” (SUCAMPO AG, priority 2006, published 2007).
“Also recorded” adds a separate entry of the source. Marks after values point to notes of the source that are not given here.

Tests used:
[1] = test system: cigarette smoke-exposed guinea pigs; assay: Macrophage (monocyte) count in bronchoalveolar lavage fluid of cigarette smoke-exposed guinea pigs; format: in vivo, guinea pig
Description: (§1) Guinea pigs were exposed to cigarette smoke using a smoking system (INH06-CIG01A, M.I.P.S. Inc.). Each animal was placed in an exposure holder, and the holder was fixed in an exposure chamber. Cigarette smoke of 30 cigarettes per day (Peace®, Japan Tobacco Inc.) was drawn from a smoke generator into the exposure chamber, 5 days per week, for 25 days (Days 1 to 25). In a sham exposure group, the atmospheric air, instead of cigarette smoke, was drawn into the exposure chamber.
(§2) Aqueous solution of Compound A (13,14-dihydro-15-keto-16,16-difluoro-18(S)-methyl-PGE1) was vaporized using a pressurized nebulizer (LC Plus Nebulizer, Pari GmbH) and inhaled by the animals in a chamber of an inhalation system (SIS-A, Sibata Scientific Technology Ltd.) for 30 minutes from 1 hr before the cigarette smoke exposure.
After the measurement of pulmonary function, the animals were sacrificed by exsanguination under anesthesia and the thorax was opened. Five milliliters of saline were instilled into the lungs through a tracheal cannula, and the lavage fluid was recovered by gentle aspiration. This procedure was repeated and the recovered lavage fluid was combined (10 mL in total, bronchoalveolar lavage fluid, BALF). The number of macrophages (monocyte) in the BALF was counted.

[2] = test system: cigarette smoke-exposed guinea pigs; assay: Pulmonary function (RV, FEV100) in cigarette smoke-exposed guinea pigs; format: in vivo, guinea pig
Description: as §1, §2
After the sRaw measurements, animals were anesthetized with ketamine (60 mg/kg) and xylazine (8 mg/kg), and the trachea was cannulated. Pulmonary function was measured using a pulmonary function measurement system (Biosystem Manoeuvers, Buxco Electronics, Inc.). The parameters of measurement consisted of residual volume (RV) and forced expiratory volume at 100 msec (FEV100).

[3] = test system: Human lung alveolar type II cells (A549); assay: Cytochrome c translocation after cigarette smoke extract (CSE) treatment, cytochrome c ELISA; format: cell-based
Method: Smoke from 8 cigarettes was drawn slowly through 100 ml of serum free culture medium and the resulting suspension was filtered through 0.20 μm filter. The solution was considered as 100% cigarette smoke extract (CSE). Human lung alveolar type II cells (A549) were grown in 96 well plates for 48 hrs at a final concentration of 1.5×10^5 cells per well. The cells were then treated separately with either 100 nM Compound A or 1%, 2.5% and 5% CSE. In other sets, 100 nM Compound A was added along with 1%, 2.5% or 5% CSE. All incubations were done at 37° C. for 24 hrs. After 24 hr treatment, the cells were washed with 0-4° C. PBS three times. Measurement of cytochrome c that was translocated into the cytosol, a marker of cellular injury, was performed according to the instructions provided with a kit for cytochrome c ELISA assay.

[4] = test system: cigarette smoke-exposed guinea pigs; assay: Specific airway resistance (sRaw) in cigarette smoke-exposed guinea pigs; format: in vivo, guinea pig; conditions: for Specific airway resistance (sRaw) Mean ± S.D.: 30 min from 1 hr before smoke exposure, Days 1 to 25, measured Day 26, n=7, control 2.154 ± 0.365, sham 1.131 ± 0.149
Description: as §1, §2
Specific airway resistance (sRaw) of conscious animals was measured by a double flow plethysmo-graph technique with a respiratory function measurement system (Pulmos-1, M.I.P.S Inc.) on Day 26.

[5] = compared with the control group

Q: With `CC[C@H](C)CC(F)(F)C(=O)CC[C@H]1[C@H](O)CC(=O)[C@@H]1CCCCCCC(=O)O` [Compound A, 13,14-dihydro-15-keto-16,16-difluoro-18(S)-methyl-PGE1] as the compound, how does the “Effect on increase in number of macrophages (monocyte) in BALF induced by cigarette smoke exposure” value [1, 5] read?
A: Its value is “significantly inhibited the increase in number of macrophages (monocyte)”.

Q: What about the “Monocyte/Macrophage count in bronchoalveolar lavage fluid Mean ± S.D.” value ([1]; inhaled aqueous solution 1 μg/mL, n=7, control 14.42 ± 3.00, sham 4.52 ± 1.73) of the same compound?
A: The value was 10.35 ± 2.53* 10^2 cells/μL.

Q: And the “Effect on decrease in FEV100 induced by cigarette smoke exposure” value [2, 5]?
A: Its value is “significantly inhibited these changes”.

Q: What about the “Effect on increase in residual volume (RV) induced by cigarette smoke exposure” value [2, 5] of the same compound?
A: Its value is “significantly inhibited these changes”.

Q: What about the “RV (residual volume) Mean ± S.D.” value ([2]; inhaled aqueous solution 1 μg/mL, n=7, control 5.44 ± 1.43, sham 2.75 ± 1.45) of the same compound?
A: Its value is 3.45 ± 1.07 mL.

Q: And the “FEV100 (forced expiratory volume at 100 msec) Mean ± S.D.” value ([2]; inhaled aqueous solution 1 μg/mL, n=7, control 5.75 ± 3.29, sham 9.87 ± 1.17)?
A: The value was 10.38 ± 1.08 mL.

Q: And the “Cytosolic cytochrome c, compound alone” value ([3]; 100 nM Compound A alone, no CSE, 24 hours)?
A: Its value is “Neither 0.1% DMSO (B) (vehicle for Compound A) nor Compound A (C) alone significantly affected cytosolic cytochrome c”.

Q: What about the “Cytochrome c translocation induced by CSE” value ([3]; 100 nM Compound A with 1%, 2.5% and 5% CSE, 24 hrs, compared to DMSO control (P<0.05, P<002 and P<0.005)) of the same compound?
A: The value was “protected against the cytochrome c translocation induced by CSE; also recorded: significantly decreased cytochrome c translocation”.

Q: And the “Effect on increase in sRaw induced by cigarette smoke exposure” value [4, 5]?
A: The value was “significantly inhibited the increase in sRaw”.

Q: What about the “Specific airway resistance (sRaw) Mean ± S.D.” value ([4]; inhaled aqueous solution 1 μg/mL) of the same compound?
A: Its value is 1.417 ± 0.226 cmH2O · sec.

Q: And the “Specific airway resistance (sRaw) Mean ± S.D.” value ([4]; inhaled aqueous solution 10 μg/mL)?
A: Its value is 1.383 ± 0.241 cmH2O · sec.
